Data on 29 compounds can be found in patent US8420657B2 (Novartis AG, priority 2008, dated 2013).

SMILES strings stand for the structures. Where only a bound is given, the exact number is not on record here.

For orientation: IC50 means the concentration that gives 50% inhibition.

In assay [1] the test system is JAK1/JAK2-dependent nuclear translocation of STAT1-GFP in HT1080 fibrosarcoma cells. Description: STAT1 nuclear translocation assay (Cellomics), IFN-γ stimulated HT1080 STAT1-GFP cells. Format: cell-based. Conditions: Homo sapiens, HT-1080, STAT1 translocation pathway. A digest of the protocol:
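IC50 derived from percent nuclear STAT1-GFP translocation, computed from nuclear minus cytoplasmic GFP intensity against untreated baseline and DMSO-stimulated control. Stable HT1080 STAT1-GFP cells received compound (0.003–10 μM, 0.1% DMSO) 30 min ahead of a 2 h 100 ng/ml IFN-γ stimulus, then fixation and Hoechst nuclear masking.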

The target of another assay is T1, GST-JAK2(808-1132) (Homo sapiens, UniProt O60674).
T1 construct: GST-JAK2(808-1132); purchased Invitrogen (Carlsbad, USA) #4288
Description: JAK2 kinase assay (Caliper mobility shift, LabChip 3000). The assay is classed as biochemical. In outline: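 Eight-point compound series (final 10–0.003 μM) tested on purchased GST-JAK2 kinase domain (808-1132). Peptide FITC-JAK3tide plus ATP reacted 60 min, 30 °C, then quenched with EDTA; turnover from charge-based separation of substrate and product.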

T1 sequence (O60674 808-1132): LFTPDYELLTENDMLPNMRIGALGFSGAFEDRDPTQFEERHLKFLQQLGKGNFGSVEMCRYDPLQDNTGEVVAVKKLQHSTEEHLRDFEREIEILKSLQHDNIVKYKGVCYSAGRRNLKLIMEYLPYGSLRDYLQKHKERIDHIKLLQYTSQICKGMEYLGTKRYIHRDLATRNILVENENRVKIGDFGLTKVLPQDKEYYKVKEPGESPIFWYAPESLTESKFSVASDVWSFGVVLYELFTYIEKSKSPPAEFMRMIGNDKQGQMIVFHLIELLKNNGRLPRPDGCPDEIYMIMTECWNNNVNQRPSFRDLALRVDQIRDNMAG

For the compound `COc1cc(Nc2ncc3ccn(-c4ccc(C(=O)N5CCOCC5)c(C)c4)c3n2)ccc1F` [Example 296, {4-[2-(4-Fluoro-3-methoxy-phenylamino)-pyrrolo[2,3-d]pyrimidin-7-yl]-2-methyl-phenyl}-morpholin-4-yl-methanone], the IC50 is 1100 nM in assay [1] and less than 3 nM on GST-JAK2(808-1132).

For `O=C(c1c(F)cc(-n2ccc3cnc(Nc4ccncn4)nc32)cc1F)N1CCOCC1` [Example 218, {2,6-Difluoro-4-[2-(pyrimidin-4-ylamino)-pyrrolo[2,3-d]pyrimidin-7-yl]-phenyl}-morpholin-4-yl-methanone], the IC50 in assay [1] was 10000 nM; on GST-JAK2(808-1132) it was 1050 nM.

As for `CC(C)Oc1ccc(Nc2ncc3ccn(-c4ccc(CCN5CCOCC5)cc4)c3n2)cc1` [Example 115, (4-Isopropoxy-phenyl)-{7-[4-(2-morpholin-4-yl-ethyl)-phenyl]-7H-pyrrolo[2,3-d]pyrimidin-2-yl}-amine], the IC50 in assay [1] worked out at 714 nM; at GST-JAK2(808-1132), 16 nM.

As to `O=C(Cc1ccc(-n2ccc3cnc(Nc4ccccc4)nc32)cc1)N1CCOCC1` [Example 143, 1-Morpholin-4-yl-2-[4-(2-phenylamino-pyrrolo[2,3-d]pyrimidin-7-yl)-phenyl]-ethanone], the IC50 in assay [1] is 195 nM; at GST-JAK2(808-1132) it was less than 3 nM.

For the compound `CS(=O)(=O)c1ccc(-n2ccc3cnc(Nc4ccc(C#N)cc4)nc32)cc1` [Example 95, 4-[7-(4-Methanesulfonyl-phenyl)-7H-pyrrolo[2,3-d]pyrimidin-2-ylamino]-benzonitrile], the IC50 in assay [1] was found to be 2360 nM; at GST-JAK2(808-1132), 16.5 nM.

As for `CC(C)Oc1ccc(Nc2ncc3ccn(-c4ccc(C(=O)N5CCOCC5)c(F)c4)c3n2)cc1` [Example 98, {2-Fluoro-4-[2-(4-isopropoxy-phenylamino)-pyrrolo[2,3-d]pyrimidin-7-yl]-phenyl}-morpholin-4-yl-methanone], the IC50 in assay [1] worked out at 575 nM; at GST-JAK2(808-1132), 5.6 nM.

As to `Cc1cncc(Nc2ncc3ccn(-c4cc(F)c(C(=O)N5CCOCC5)c(F)c4)c3n2)c1` [Example 242, {2,6-Difluoro-4-[2-(5-methyl-pyridin-3-ylamino)-pyrrolo[2,3-d]pyrimidin-7-yl]-phenyl}-morpholin-4-yl-methanone], the IC50 in assay [1] stood at 355 nM; on GST-JAK2(808-1132) it was 4.3 nM.

On to `CS(=O)(=O)c1ccc(-n2ccc3cnc(Nc4ccc(N5CCNC6(CC6)C5)nc4)nc32)cc1` [Example 272, [6-(4,7-Diaza-spiro[2.5]oct-7-yl)-pyridin-3-yl]-[7-(4-methanesulfonyl-phenyl)-7H-pyrrolo[2,3-d]pyrimidin-2-yl]-amine], for which the IC50 in assay [1] turned out to be 175 nM; at GST-JAK2(808-1132) it was 11 nM.

For the compound `Cc1cc(Nc2ncc3ccn(-c4ccc(S(C)(=O)=O)cc4)c3n2)ccc1C(=O)N1CCN(C)CC1` [Example 73, {4-[7-(4-Methanesulfonyl-phenyl)-7H-pyrrolo[2,3-d]pyrimidin-2-ylamino]-2-methyl-phenyl}-(4-methyl-piperazin-1-yl)-methanone], the IC50 in assay [1] was 80.5 nM; at GST-JAK2(808-1132), less than 3 nM.

As for `Cc1ccc(Nc2ncc3ccn(-c4ccc(C(=O)N5CCN(C)CC5)c(F)c4)c3n2)cc1C` [Example 155, {4-[2-(3,4-Dimethyl-phenylamino)-pyrrolo[2,3-d]pyrimidin-7-yl]-2-fluoro-phenyl}-(4-methyl-piperazin-1-yl)-methanone], the results for the IC50 (in assay [1]; at GST-JAK2(808-1132)) were 3280 nM and 200 nM, respectively.

With `O=C1CN(Cc2ccc(Nc3ncc4ccn(-c5cc(F)c(CN6CCOCC6)c(F)c5)c4n3)cc2)CCN1` [Example 258, 4-{4-[7-(3,5-Difluoro-4-morpholin-4-ylmethyl-phenyl)-7H-pyrrolo[2,3-d]pyrimidin-2-ylamino]-benzyl}-piperazin-2-one], the values for the IC50 (in assay [1]; at GST-JAK2(808-1132)) were 80 nM and less than 3 nM, respectively.

`COc1ccc(Nc2ncc3ccn(-c4ccc(S(C)(=O)=O)cc4)c3n2)cc1OCCN1CCOCC1` [Example 29, [7-(4-Methanesulfonyl-phenyl)-7H-pyrrolo[2,3-d]pyrimidin-2-yl]-[4-methoxy-3-(2-morpholin-4-yl-ethoxy)-phenyl]-amine]: the IC50 in assay [1] was 91 nM; at GST-JAK2(808-1132), less than 3 nM.

As to `O=C(c1c(F)cc(-n2ccc3cnc(Nc4ccc(CN5CCNC6(CC6)C5)cc4)nc32)cc1F)N1CCOCC1` [Example 257], the IC50 in assay [1] was 150 nM; at GST-JAK2(808-1132) it was 10 nM.

Regarding `CS(=O)(=O)c1ccc(-n2ccc3cnc(Nc4cccc(C(=O)N5CCOCC5)c4)nc32)cc1` [Example 49, {3-[7-(4-Methanesulfonyl-phenyl)-7H-pyrrolo[2,3-d]pyrimidin-2-ylamino]-phenyl}-morpholin-4-yl-methanone], the values for the IC50 (in assay [1]; on GST-JAK2(808-1132)) were 878 nM and 14 nM, respectively.

Consider `CC(=O)c1ccc(Nc2ncc3ccn(-c4ccc(S(C)(=O)=O)cc4)c3n2)cc1` [Example 79, 1-{4-[7-(4-Methanesulfonyl-phenyl)-7H-pyrrolo[2,3-d]pyrimidin-2-ylamino]-phenyl}-ethanone], for which the IC50 turned out to be 257 nM in assay [1] and 4.8 nM at GST-JAK2(808-1132).

As for `O=C(c1ccc(-n2ccc3cnc(Nc4ccc(F)cc4)nc32)cc1)N1CCOCC1` [Example 61, {4-[2-(4-Fluoro-phenylamino)-pyrrolo[2,3-d]pyrimidin-7-yl]-phenyl}-morpholin-4-yl-methanone], the IC50 in assay [1] is 835 nM; on GST-JAK2(808-1132) it was 7.1 nM.

Take `O=C(c1ccc(-n2ccc3cnc(Nc4cccnc4)nc32)cc1F)N1CCOCC1` [Example 224, {2-Fluoro-4-[2-(pyridin-3-ylamino)-pyrrolo[2,3-d]pyrimidin-7-yl]-phenyl}-morpholin-4-yl-methanone]: the IC50 came out at 1080 nM in assay [1] and 8.5 nM at GST-JAK2(808-1132).

On to `CN1CCN(Cc2cccc(Nc3ncc4ccn(-c5ccc(S(C)(=O)=O)cc5)c4n3)c2)CC1` [Example 93], for which the IC50 in assay [1] is 191 nM; at GST-JAK2(808-1132) it was less than 3 nM.

With `COc1cc(Nc2ncc3ccn(-c4ccc(CC(=O)N5CCN(C)CC5)cc4)c3n2)ccc1F` [Example 150, 2-{4-[2-(4-Fluoro-3-methoxy-phenylamino)-pyrrolo[2,3-d]pyrimidin-7-yl]-phenyl}-1-(4-methyl-piperazin-1-yl)-ethanone], the IC50 came out at 64.5 nM in assay [1] and 4.5 nM on GST-JAK2(808-1132).

For `O=C(NCCN1CCOCC1)c1ccc(-n2ccc3cnc(Nc4ccc(F)cc4)nc32)cc1` [Example 62, 4-[2-(4-Fluoro-phenylamino)-pyrrolo[2,3-d]pyrimidin-7-yl]-N-(2-morpholin-4-yl-ethyl)-benzamide], the IC50 in assay [1] was 5390 nM; at GST-JAK2(808-1132), 180 nM.

On to `CN1CCN(C(=O)c2ccc(-n3ccc4cnc(Nc5ccc(F)cc5)nc43)cc2)CC1` [Example 56, {4-[2-(4-Fluoro-phenylamino)-pyrrolo[2,3-d]pyrimidin-7-yl]-phenyl}-(4-methyl-piperazin-1-yl)-methanone], for which the values for the IC50 (in assay [1]; on GST-JAK2(808-1132)) were 4680 nM and 32 nM, respectively.

Take `Cc1ccc(Nc2ncc3ccn(-c4ccc(CC(=O)N5CCS(=O)(=O)CC5)c(F)c4)c3n2)cc1C` [Example 156, 2-{4-[2-(3,4-Dimethyl-phenylamino)-pyrrolo[2,3-d]pyrimidin-7-yl]-2-fluoro-phenyl}-1-(1,1-dioxido-1-thiomorpholin-4-yl)-ethanone]: the figures for the IC50 (in assay [1]; on GST-JAK2(808-1132)) were 60 nM and 13 nM, respectively.

For the compound `Cc1ccc(Nc2ncc3ccn(-c4cc(F)c(CN5CCOCC5(C)C)c(F)c4)c3n2)cc1C` [Example 309, {7-[4-(3,3-Dimethyl-morpholin-4-ylmethyl)-3,5-difluoro-phenyl]-7H-pyrrolo[2,3-d]pyrimidin-2-yl}-(3,4-dimethyl-phenyl)-amine], the IC50 in assay [1] is 4160 nM; on GST-JAK2(808-1132), 780 nM.

In the case of `Fc1cc(-n2ccc3cnc(Nc4ccc(CN5CCOCC5)cc4)nc32)cc(F)c1CN1CCOCC1` [Example 197, [7-(3,5-Difluoro-4-morpholin-4-ylmethyl-phenyl)-7H-pyrrolo[2,3-d]pyrimidin-2-yl]-(4-morpholin-4-ylmethyl-phenyl)-amine], the IC50 was 90 nM in assay [1] and less than 3 nM at GST-JAK2(808-1132).

With `COc1ccc(Nc2ncc3ccn(-c4ccc(C(=O)NC(C)(C)C)cc4)c3n2)cc1OC` [Example 7, N-tert-Butyl-4-[2-(3,4-dimethoxy-phenylamino)-pyrrolo[2,3-d]pyrimidin-7-yl]-benzamide], the IC50 in assay [1] was found to be 254 nM; at GST-JAK2(808-1132) it was 6.2 nM.

Consider `CC(C)Oc1ccc(Nc2ncc3ccn(-c4ccc(CN5CCCNCC5)c(F)c4)c3n2)cc1` [Example 108], for which the IC50 came out at 1680 nM in assay [1] and 6.6 nM on GST-JAK2(808-1132).

Turning to `CC(C)Oc1ccc(Nc2ncc3ccn(-c4ccc(CN5CCOCC5)c(F)c4)c3n2)cc1` [Example 97, [7-(3-Fluoro-4-morpholin-4-ylmethyl-phenyl)-7H-pyrrolo[2,3-d]pyrimidin-2-yl]-(4-isopropoxy-phenyl)-amine], the IC50 in assay [1] was found to be 1460 nM; at GST-JAK2(808-1132), 9.4 nM.

In the case of `CC(C)Oc1ccc(Nc2ncc3ccn(-c4ccc(CN5CCOCC5)cc4)c3n2)cc1` [Example 109, (4-Isopropoxy-phenyl)-[7-(4-morpholin-4-ylmethyl-phenyl)-7H-pyrrolo[2,3-d]pyrimidin-2-yl]-amine], the IC50 in assay [1] was 310 nM; at GST-JAK2(808-1132) it was 8.3 nM.

Regarding `Cc1cc(Nc2ncc3ccn(-c4ccc(C(=O)N5CCOCC5)c(F)c4)c3n2)ccc1F` [Example 92, {2-Fluoro-4-[2-(4-fluoro-3-methyl-phenylamino)-pyrrolo[2,3-d]pyrimidin-7-yl]-phenyl}-morpholin-4-yl-methanone], the IC50 in assay [1] turned out to be 260 nM; on GST-JAK2(808-1132) it was 4.2 nM.
